Measurements taken from US12173320B2, “Production of red blood cells and platelets from stem cells” (BOSTON MEDICAL CENTER CORPORATION, priority 2012, dated 2024).
Like-named read-outs stand apart in the source and are kept apart here. Values belong to the compound of their own block, whether it stands above or below them.

Tests used:
Assay type in all cases: cell-based, human
[1] = system: AhR (CYP1B1 target gene expression) in iPSCs; experiment: Quantitative RT-PCR of AhR target gene CYP1B1 in iPSCs
Procedure: RNA was extracted using the RNeasy kit (Qiagen) according to the manufacturer's instructions and DNase treated using the DNA-free kit (Ambion AM1906). Reverse transcription into cDNA was performed using the High Capacity cDNA Reverse Transcription Kit (Applied Biosystems 4368814). Quantitative (real time) PCR amplification of cDNA was performed using Taqman probes for AHR (Hs00169233 ml), CYP1B1 (Hs002382916 sl), HBA (Hs00361191 gl), HBB (Hs00758889 sl), HBG (Hs01629437 sl), vWF (Hs00169795 ml), PF4 (Hs00427220 gl), NF-E2 (Hs00232351 ml) and CD62P (Hs00927900 ml) and run on the Applied Biosystems StepOne machine. […]
To characterize AhR expression and functionality in both undifferentiated iPSCs and directly differentiated MEPs, AhR protein levels were determined via Western blot in these populations. AhR receptor was robustly expressed in day 30 and day 60 MEPs (FIG. 4A). However, AhR protein was not detected by western blotting in iPSC populations, and we postulated that AhR was expressed at extremely low levels in iPSCs, i.e., below the level of detectability with the antibodies used for Western blots. To test this hypothesis, the ability of FICZ to induce a prototypic AhR-target gene, CYPIB1, in iPSCs or, as a positive control, MEPs was assessed by quantitative RT-PCR.

[2] = system: AhR (CYP1B1 target gene expression) in MEPs; experiment: Quantitative RT-PCR of AhR target gene CYP1B1 in MEPs
Procedure: (§1) 6-formylindolo[3,2-b]carbazole (FICZ), an AHR small molecule agonist, and CH223191, an AHR competitive inhibitor were used for these assays. CH223191 was added to mesoderm cultures at Day 6 at 5 μM (lx) and 2.504 (0.5×). 0.2 μM FICZ was added to cultures at Day 7 and media was added daily. DMSO was used as a vehicle control.
RNA was extracted using the RNeasy kit (Qiagen) according to the manufacturer's instructions and DNase treated using the DNA-free kit (Ambion AM1906). Reverse transcription into cDNA was performed using the High Capacity cDNA Reverse Transcription Kit (Applied Biosystems 4368814). Quantitative (real time) PCR amplification of cDNA was performed using Taqman probes for AHR (Hs00169233 ml), CYP1B1 (Hs002382916 sl), HBA (Hs00361191 gl), HBB (Hs00758889 sl), HBG (Hs01629437 sl), vWF (Hs00169795 ml), PF4 (Hs00427220 gl), NF-E2 (Hs00232351 ml) and CD62P (Hs00927900 ml) and run on the Applied Biosystems StepOne machine. Relative gene expression was normalized to B-actin (Hs99999903 ml).
To characterize AhR expression and functionality in both undifferentiated iPSCs and directly differentiated MEPs, AhR protein levels were determined via Western blot in these populations. […] To test this hypothesis, the ability of FICZ to induce a prototypic AhR-target gene, CYPIB1, in iPSCs or, as a positive control, MEPs was assessed by quantitative RT-PCR.

iPSC-derived MEPs [3] = experiment: Live versus dead cell FACS (propidium iodide vs. Hoechst) of MEPs; conditions: pre-treated for 24 hours with 5 μM CH223191 before FICZ
Procedure: as §1
(§2) Roughly 10^5 cells were collected, spun, and re-suspended in 0.5% BSA in PBS. Samples were incubated for 30 min at ambient temperature with human antibodies including CD41a-FITC (BD 555466), CD235-PE (BD 555570), CD71-FITC (BD 555536), washed and spun at 3300 rpm for 7 min, and re-suspended in 0.5% BSA in PBS with 1 ug/ml Propidium Iodide. Samples were run on a BD FACScalibur using Cellquest Pro software and analyzed via FloJo 8.7. For ploidy analysis, cells were treated with 1.5% NP-40 (Boston Bioproducts P-872) and 62.5 ug/ml Propidium Iodide in PBS immediately before FACScalibur interrogation. For murine bone marrow, samples were first incubated for 5 min at ambient temperature with murine conjugated antibody CD16/32 (BD 553142) before a 30 min incubation with c-Kit-PE (BD 553355), CD41a-FITC (BD 553848), Ter119-PE (BD 553673). For cell viability assays, 2-3×10 ^5 cells were collected, re-suspended in 8.8 ug/ml Hoecsht 33342 in PBS supplemented with 5% FBS. Samples were then incubated in the dark at 37° C. for 15 min, washed, and re-suspended in 1 ug/ml Propidium Iodide in 5% FBS. Samples were run on an LSR-II machine with FACSDiva software and analyzed via FloJo 8.7.
In order to determine whether FICZ-mediated transactivation of the AhR receptor was responsible for the exponential expansion of iPSC-derived MEPs, the previously described Hoecsht/Propidium Iodide apoptosis assay was performed using the known AhR inhibitor CH223191. As previously shown in FIG. 3, fewer cells stained with propidium iodide after FICZ treatment (e.g., 15.5% vs. 8.09%) (FIG. 5E). […] The efficacy of the CH223191 was confirmed by its ability to block CY1^31B1 induction as assayed by qRT-PCR (FIG. 5F).

iPSC-derived MEPs [4] = experiment: Growth / expansion of MEP cultures (manual counts, trypan blue exclusion)
Procedure: Plots were gated first in FSC vs. SSC and then from that population for PI ‘ and PE Hoechst’. […] (B) Representative phase contrast images of MEP population+FICZ. (C) Growth curve of day 15 MEPs+/−[…] FICZ. Cells were counted manually using trypan blue exclusion. Graphical data and the associated statistics are the result of three independent experiments per group.
High passage iPSCs were plated onto matrigel coated 6-well plates in iPSC media conditioned on iMEFs for 24 hours and supplemented with 2 ng/ml Rho Kinase Inhibitor and 20 ng/ml bFGF. After two days, iPSC media was replaced with Mesoderm DO-1 media: RPMI (Invitrogen A1049101) supplemented with 5 ng/mlhBMP-4 (R&D 314-BP-010), 50 ng/ml hVEGF (R&D 293-VE-010), 25 ng/mlhWnt3a (R&D 287-TC-500) and 10% KOSR. At Day 2, Mesoderm DO-1 media was replaced with Mesoderm D2 media: RPMI supplemented with 5 ng/ml hBMP-4, 50 ng/mlhVEGF, 20 ng/ml bFGF and 10% KOSR. Mesoderm D3 media consisted of the following: StemPro 34 (Invitrogen 10639011), 5 ng/ml hBMP-4, 50 ng/mlhVEGF, and 20 ng/ml bFGF. Mesoderm media for days 4 and 5 consisted of: StemPro 34, 15 ng/mlhVEGF, and 5 ng/ml bFGF. Day 6 mesoderm media: 74% IMDM (Invitrogen 12330061), 24% Hams F12 (Mediatech 10-080-CV), 1% B27 supplement (Invitrogen 12587-010), 0.5% N2-supplement (Invitrogen 17502-048), 0.5% BSA (Sigma A3059), 50 ng/ml hVEGF, 100 ng/mlbFGF, 100 ng/ml hSCF (R&D 255-SC-010), 25 ng/ml hFlt3 Ligand (R&D 308-FKN-005). Day 7 media: 74% IMDM, 24% Hams F12, 1% B27 supplement, 0.5% N2-supplement, 0.5% BSA, 50 ng/ml hVEGF, 100 ng/ml bFGF, 100 ng/ml hSCF, 25 ng/ml hFlt3 Ligand, 50 ng/ml hTPO (Genentech G140BT), 10 ng/ml IL-6 (R&D 206-IL-010), 0.5 U/ml hEPOgen and 0.2 uM 6-formylindolo[3,2-b]carbazole (FICZ) (Santa Cruz SC300019). After Day 7, 0.5 ml of Day 7 media was added to the culture daily without aspirating the media from the previous day. All base media mixes included 2 mM L-Glutamine (Invitrogen 25030081), 4×10^-4M Monothioglycerol (Sigma M1753), 100 ug/ml Primocin, and 50 ug/ml Ascorbic Acid. Cells in suspension were collected and assayed at Days 10-13 or split for long-term culture.
as §1

AhR = experiment: Lentiviral AhR reporter (MMTV-DRE dsRed / luciferase) in MEPs; conditions: day 30 MEPs, 0.2 μM FICZ plus 5 μM CH223191
iPSC-derived MEPs [5] = experiment: Immunophenotyping of MEP lineage specification (CD235, CD71, CD41 FACS); conditions: day 30 MEPs, basal cytokine conditions, versus vehicle
Procedure: as §2
In our previous studies in which we noted exponential expansion of iPSC-derived MEPs (FIG. 3), the AhR-mediated effect that we noted allowed us to culture cells for extended periods of time (>120 days). […]

SMILES: Clc1cc2c(cc1Cl)Oc1cc(Cl)c(Cl)cc1O2 [TCDD, 2,3,7,8-tetrachlorodibenzo(p)dioxin]
responsiveness to AhR agonist (CYP1B1 RT-PCR) ([1]; iPSC treated for 4 days, normalized to GAPDH): responsive

responsiveness to AhR agonist (CYP1B1 RT-PCR) ([2]; MEP, normalized to GAPDH): responsive | responsiveness to AhR agonist (CYP1B1 RT-PCR) [1]: responsive
SMILES: O=c1cc(-c2ccccc2)oc2ccc3ccccc3c12 [(3-NF, P-naphtoflavone]

CYP1B1 induction by FICZ ([2]; MEPs pretreated with CH223191 at D6, FICZ at D7): block | DsRed reporter expression (AhR): significant decrease
SMILES: Cc1ccccc1N=Nc1ccc(NC(=O)c2ccnn2C)c(C)c1 [CH223191, 2-methyl-2H-pyrazole-3-carboxylic acid (2-methyl-4-o-tolylazo-phenyl)-amide]
percentage of PI+ cells, vehicle versus FICZ-treated cultures (iPSC-derived MEPs [3]): approximately the same | expansion of MEPs (iPSC-derived MEPs [4]; 2.5 μM CH223191 pre-treatment before addition of FICZ): still capable of expansion | expansion of MEPs (iPSC-derived MEPs [4]; 5 μM CH223191 pre-treatment + FICZ): No significant expansion | CD41+ megakaryocyte-lineage cells (iPSC-derived MEPs [5]): small but defined population
